{"source": "paper PMC2233745", "about": "(The Journal of General Physiology, 2001)", "origin": "cited, not measured here", "tested_on": "high Km PDE", "details": "high Km PDE in GH3 and GH4C1 cells; ref Gautvik et al. 1982; cited from earlier work"}
{"smiles": "Nc1ncnc2c1ncn2[C@@H]1O[C@@H]2COP(=O)(O)O[C@H]2[C@H]1O", "note": "[cAMP]", "values": [{"measurement": "Km", "result": 28.6, "unit": "µM"}]}
